Results on ten compounds are retold here after patent publication US10800792B2, “Inhibitors of Bruton's tyrosine kinase and method of their use” (JANSSEN PHARMACEUTICA NV, priority 2015, dated 2020).

The target of this experiment is unphosphorylated-BTK kinase domain (UP-BTK), GST-tagged human BTK (389-659aa) (Homo sapiens (Human), UniProt Q06187). Kind of experiment: BTK kinase Lanthascreen binding assay. The settings on record: pIC50 = negative log of the IC50 in molar; 60 minutes incubation, 50 nM Tracer 236. Put shortly: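 Tracer-displacement binding assay against the non-phosphorylated enzyme, read by Lanthascreen. Reported: pIC50.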
Chain of unphosphorylated-BTK kinase domain (UP-BTK), GST-tagged human BTK (389-659aa) (Q06187 389-659): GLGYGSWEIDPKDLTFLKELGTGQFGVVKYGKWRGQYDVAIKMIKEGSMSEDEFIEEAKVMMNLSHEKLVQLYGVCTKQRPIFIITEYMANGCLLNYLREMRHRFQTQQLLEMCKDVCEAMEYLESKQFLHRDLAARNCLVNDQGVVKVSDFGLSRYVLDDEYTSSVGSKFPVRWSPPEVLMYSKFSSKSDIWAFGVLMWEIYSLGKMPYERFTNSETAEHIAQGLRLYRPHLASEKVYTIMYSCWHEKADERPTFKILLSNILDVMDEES
With `Cc1cc(Oc2ccccc2)ccc1N1C(=O)Nc2c(C(=O)N[C@@H]3CCN(C)C3)sc3nccc1c23` [Example 117, (R)-5-(2-Methyl-4-phenoxyphenyl)-N-(1-methylpyrrolidin-3-yl)-4-oxo-4,5-dihydro-3H-1-thia-3,5,8-triazaacenaphthylene-2-carboxamide], the “BTK_I_binding pIC50” value was 6.9.

Take `Cc1cc(Oc2ccccc2)ccc1N1C(=O)Nc2c(C(=O)N[C@@H]3CCN(C(C)C)C3)sc3nccc1c23` [Example 118, (R)—N-(1-Isopropylpyrrolidin-3-yl)-5-(2-methyl-4-phenoxyphenyl)-4-oxo-4,5-dihydro-3H-1-thia-3,5,8-triazaacenaphthylene-2-carboxamide]: the “BTK_I_binding pIC50” value is listed as 6.9.

For the compound `C=CC(=O)N1CC[C@@H](NC(=O)c2sc3nccc4c3c2NC(=O)N4c2ccc(CC)cc2C)C1` [Example 119, (R)—N-(1-Acryloylpyrrolidin-3-yl)-5-(4-ethyl-2-methylphenyl)-4-oxo-4,5-dihydro-3H-1-thia-3,5,8-triazaacenaphthylene-2-carboxamide], the “BTK_I_binding pIC50” value is recorded as 6.6.

As to `COC[C@H](N)C(=O)N1CCC[C@@H](NC(=O)c2sc3nccc4c3c2NC(=O)N4c2ccc(Oc3ccccc3)cc2C)C1` [Example 120, N—((R)-1-((S)-2-Amino-3-methoxypropanoyl)piperidin-3-yl)-5-(2-methyl-4-phenoxyphenyl)-4-oxo-4,5-dihydro-3H-1-thia-3,5,8-triazaacenaphthylene-2-carboxamide], the “BTK_I_binding pIC50” value was found to be 7.1.

For the compound `C=CC(=O)N1CCC[C@@H](NC(=O)c2sc3nccc4c3c2NC(=O)N4c2ccc(Oc3ccccc3)nn2)C1` [Example 121, (R)—N-(1-Acryloylpiperidin-3-yl)-4-oxo-5-(6-phenoxypyridazin-3-yl)-4,5-dihydro-3H-1-thia-3,5,8-triazaacenaphthylene-2-carboxamide], the “BTK_I_binding pIC50” value was determined as 6.7.

Consider `COC[C@H](O)C(=O)N1CCC[C@@H](NC(=O)c2sc3nccc4c3c2NC(=O)N4c2ccc(Oc3ccccc3)cc2C)C1` [Example 122, N—((R)-1-((S)-2-Hydroxy-3-methoxypropanoyl)piperidin-3-yl)-5-(2-methyl-4-phenoxyphenyl)-4-oxo-4,5-dihydro-3H-1-thia-3,5,8-triazaacenaphthylene-2-carboxamide], for which the “BTK_I_binding pIC50” value was 7.4.

In the case of `Cc1cc(Oc2ccccc2)ccc1N1C(=O)Nc2c(C(=O)NC3CCOCC3)sc3nccc1c23` [Example 123, 5-(2-Methyl-4-phenoxyphenyl)-4-oxo-N-(tetrahydro-2H-pyran-4-yl)-4,5-dihydro-3H-1-thia-3,5,8-triazaacenaphthylene-2-carboxamide], the “BTK_I_binding pIC50” value is 6.9.

Turning to `Cc1cc(Oc2ccccc2)ccc1N1C(=O)Nc2c(C(=O)N[C@@H]3CCCN(C(=O)CO)C3)sc3nccc1c23` [Example 124, (R)—N-(1-(2-Hydroxyacetyl)piperidin-3-yl)-5-(2-methyl-4-phenoxyphenyl)-4-oxo-4,5-dihydro-3H-1-thia-3,5,8-triazaacenaphthylene-2-carboxamide], the “BTK_I_binding pIC50” value is 7.4.

`Cc1cc(Oc2ccccc2)ccc1N1C(=O)Nc2c(C(=O)N[C@@H]3CCCN(C(=O)[C@H]4CCN(C)C4)C3)sc3nccc1c23` [Example 125, 5-(2-Methyl-4-phenoxyphenyl)-N—((R)-1-((S)-1-methylpyrrolidine-3-carbonyl)piperidin-3-yl)-4-oxo-4,5-dihydro-3H-1-thia-3,5,8-triazaacenaphthylene-2-carboxamide]: the “BTK_I_binding pIC50” value is on record as 7.2.

In the case of `C=CC(=O)N1CC[C@@H](NC(=O)c2sc3nccc4c3c2NC(=O)N4c2ccc(OC(C)C)cc2C)C1` [Example 126, (R)—N-(1-Acryloylpyrrolidin-3-yl)-5-(4-isopropoxy-2-methylphenyl)-4-oxo-4,5-dihydro-3H-1-thia-3,5,8-triazaacenaphthylene-2-carboxamide], the “BTK_I_binding pIC50” value is 6.7.
